Measurements as given in ChEMBL document CHEMBL4602673, “Insights into Protein-Ligand Interactions in Integrin Complexes: Advances in Structure Determinations” (J Med Chem, 2020).
One block for each compound: values may come before it. Bridge positions count the residues as written; N and C are the ends. Square brackets hold non-standard residues; d marks the D form. Peptide text beside a SMILES is read from it. hArg = N=C(N)NCCCC[C@H](N)C(=O)O; Mpa = O=C(O)CCS

Assays:
[1] = biological target: T1, Integrin alpha-L/beta-2 (LFA-1) (Homo sapiens, UniProt P05107+P20701); experiment: Binding affinity to human lymphocyte integrin alphaL beta2 (Cys125 to Gly311residues) expressed in Escherichia coli XL-1B cells by isothermal titration calorimetry
T1 sequence (P20701 whole entry): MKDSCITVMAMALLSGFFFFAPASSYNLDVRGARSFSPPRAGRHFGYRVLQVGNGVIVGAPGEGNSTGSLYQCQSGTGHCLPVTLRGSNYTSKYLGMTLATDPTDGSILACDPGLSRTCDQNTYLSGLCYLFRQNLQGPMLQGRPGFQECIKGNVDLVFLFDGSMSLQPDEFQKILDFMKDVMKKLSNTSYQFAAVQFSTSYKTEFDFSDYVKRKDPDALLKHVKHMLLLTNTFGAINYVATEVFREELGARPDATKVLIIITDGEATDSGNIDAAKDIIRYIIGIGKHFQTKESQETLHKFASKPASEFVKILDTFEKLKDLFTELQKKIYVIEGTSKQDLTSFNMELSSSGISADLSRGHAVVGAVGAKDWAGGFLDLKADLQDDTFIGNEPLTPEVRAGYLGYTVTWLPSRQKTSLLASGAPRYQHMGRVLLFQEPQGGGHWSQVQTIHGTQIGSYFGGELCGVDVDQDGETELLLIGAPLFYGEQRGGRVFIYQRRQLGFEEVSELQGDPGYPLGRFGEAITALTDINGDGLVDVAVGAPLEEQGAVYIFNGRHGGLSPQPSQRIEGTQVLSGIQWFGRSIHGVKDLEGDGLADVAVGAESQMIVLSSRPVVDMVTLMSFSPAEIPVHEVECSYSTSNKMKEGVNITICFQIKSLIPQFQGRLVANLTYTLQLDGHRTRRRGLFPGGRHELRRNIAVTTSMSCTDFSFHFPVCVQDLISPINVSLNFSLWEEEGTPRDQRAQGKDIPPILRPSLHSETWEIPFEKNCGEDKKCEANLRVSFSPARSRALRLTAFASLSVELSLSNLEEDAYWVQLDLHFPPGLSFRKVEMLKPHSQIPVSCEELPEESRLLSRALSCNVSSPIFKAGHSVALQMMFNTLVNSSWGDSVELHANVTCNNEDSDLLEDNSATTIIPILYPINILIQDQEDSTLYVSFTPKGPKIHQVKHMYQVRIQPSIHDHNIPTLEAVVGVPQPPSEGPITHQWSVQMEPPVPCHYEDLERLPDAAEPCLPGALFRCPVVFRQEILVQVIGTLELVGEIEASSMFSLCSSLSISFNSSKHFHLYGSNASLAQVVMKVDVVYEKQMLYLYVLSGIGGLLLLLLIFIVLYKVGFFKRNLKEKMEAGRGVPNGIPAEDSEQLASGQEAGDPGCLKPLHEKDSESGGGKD
T1 sequence (P05107 whole entry): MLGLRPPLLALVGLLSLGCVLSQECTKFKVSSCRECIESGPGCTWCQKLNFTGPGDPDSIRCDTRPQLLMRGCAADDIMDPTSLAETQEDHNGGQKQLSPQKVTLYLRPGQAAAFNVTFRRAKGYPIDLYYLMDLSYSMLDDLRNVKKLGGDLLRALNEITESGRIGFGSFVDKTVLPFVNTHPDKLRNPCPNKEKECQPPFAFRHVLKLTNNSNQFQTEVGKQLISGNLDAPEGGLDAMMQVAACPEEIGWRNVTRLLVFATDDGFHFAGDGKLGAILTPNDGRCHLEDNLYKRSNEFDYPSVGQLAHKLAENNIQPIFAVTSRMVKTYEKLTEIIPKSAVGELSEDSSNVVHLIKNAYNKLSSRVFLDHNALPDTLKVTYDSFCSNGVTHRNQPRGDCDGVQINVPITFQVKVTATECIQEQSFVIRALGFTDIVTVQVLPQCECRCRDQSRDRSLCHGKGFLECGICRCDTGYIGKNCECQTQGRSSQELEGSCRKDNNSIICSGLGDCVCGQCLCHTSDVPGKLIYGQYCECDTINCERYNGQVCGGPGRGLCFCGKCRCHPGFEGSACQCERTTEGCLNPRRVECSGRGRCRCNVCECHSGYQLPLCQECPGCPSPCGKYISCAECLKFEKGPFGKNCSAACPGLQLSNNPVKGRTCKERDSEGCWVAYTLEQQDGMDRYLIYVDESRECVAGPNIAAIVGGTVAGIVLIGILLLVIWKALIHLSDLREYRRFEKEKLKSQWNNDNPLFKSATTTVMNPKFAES

Integrin alpha-V/beta-3 [2] = biological target: T2, Integrin alpha-V/beta-3 (Homo sapiens, UniProt P05106+P06756); experiment: Inhibition of human integrin alphavbeta3 expressed in HEK293 cells assessed as reduction in cell adhesion to fibrinogen preincubated for 20 mins followed by phosphatase substrate addition and measured after 1 hr by spectrophotometry; assay type: cell-based
T2 sequence (P05106 27-788 limits assumed): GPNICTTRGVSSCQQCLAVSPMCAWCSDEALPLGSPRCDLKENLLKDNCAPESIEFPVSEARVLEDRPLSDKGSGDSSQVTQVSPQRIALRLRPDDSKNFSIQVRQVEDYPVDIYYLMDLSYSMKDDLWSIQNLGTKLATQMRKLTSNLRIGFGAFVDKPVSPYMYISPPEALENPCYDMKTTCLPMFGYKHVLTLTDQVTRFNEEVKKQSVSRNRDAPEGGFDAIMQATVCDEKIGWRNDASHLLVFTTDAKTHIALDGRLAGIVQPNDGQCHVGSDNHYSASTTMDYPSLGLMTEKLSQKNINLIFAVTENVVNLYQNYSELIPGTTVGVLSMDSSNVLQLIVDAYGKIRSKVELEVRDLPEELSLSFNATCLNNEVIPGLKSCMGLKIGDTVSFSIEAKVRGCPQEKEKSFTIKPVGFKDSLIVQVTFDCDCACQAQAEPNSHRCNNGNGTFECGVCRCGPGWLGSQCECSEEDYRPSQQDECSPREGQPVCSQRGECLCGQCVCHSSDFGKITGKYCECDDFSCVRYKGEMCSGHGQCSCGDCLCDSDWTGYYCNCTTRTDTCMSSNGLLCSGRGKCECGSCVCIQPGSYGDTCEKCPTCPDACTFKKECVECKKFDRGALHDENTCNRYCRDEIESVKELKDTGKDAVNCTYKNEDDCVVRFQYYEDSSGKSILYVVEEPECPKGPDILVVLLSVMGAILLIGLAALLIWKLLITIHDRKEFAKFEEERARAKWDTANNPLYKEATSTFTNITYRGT
T2 sequence (P06756 31-889 limits assumed): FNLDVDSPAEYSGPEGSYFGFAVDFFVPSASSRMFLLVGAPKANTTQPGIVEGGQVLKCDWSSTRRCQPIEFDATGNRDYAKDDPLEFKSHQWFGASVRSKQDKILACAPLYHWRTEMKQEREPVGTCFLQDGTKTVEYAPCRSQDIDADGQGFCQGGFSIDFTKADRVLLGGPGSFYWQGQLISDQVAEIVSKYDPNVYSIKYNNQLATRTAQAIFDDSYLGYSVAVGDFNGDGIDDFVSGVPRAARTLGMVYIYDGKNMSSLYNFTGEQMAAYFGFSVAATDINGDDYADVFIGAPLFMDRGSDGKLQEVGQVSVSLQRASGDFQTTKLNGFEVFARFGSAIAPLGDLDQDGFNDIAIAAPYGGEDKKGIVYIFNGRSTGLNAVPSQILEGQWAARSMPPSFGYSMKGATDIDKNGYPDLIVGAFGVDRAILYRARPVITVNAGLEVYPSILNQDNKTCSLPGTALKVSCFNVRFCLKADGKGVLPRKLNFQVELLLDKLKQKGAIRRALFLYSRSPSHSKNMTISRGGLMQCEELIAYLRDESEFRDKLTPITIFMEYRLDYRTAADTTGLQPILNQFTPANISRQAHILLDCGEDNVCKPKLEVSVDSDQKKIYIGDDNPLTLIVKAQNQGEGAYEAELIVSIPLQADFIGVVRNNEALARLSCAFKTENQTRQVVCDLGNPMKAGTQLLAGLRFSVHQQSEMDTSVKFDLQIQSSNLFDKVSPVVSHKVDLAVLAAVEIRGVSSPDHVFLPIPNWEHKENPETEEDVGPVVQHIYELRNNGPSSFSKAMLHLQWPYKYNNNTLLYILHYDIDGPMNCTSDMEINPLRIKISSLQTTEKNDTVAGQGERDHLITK
T2 sequence (P06756 891-1048 limits assumed): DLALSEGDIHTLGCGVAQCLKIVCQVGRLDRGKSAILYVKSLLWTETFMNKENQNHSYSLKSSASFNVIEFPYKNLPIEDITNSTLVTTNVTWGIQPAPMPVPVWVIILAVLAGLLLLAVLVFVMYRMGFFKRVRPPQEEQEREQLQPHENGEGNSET

Integrin alpha-4/beta-1 = Integrin alpha-4/beta-1 (Homo sapiens, UniProt P05556+P13612); experiment: Binding affinity to human integrin alpha4beta1 incubated for 6 hrs by radioligand binding assay; assay type: protein-complex assay
Integrin alpha2/beta1 = Integrin alpha2/beta1 (Homo sapiens, UniProt P05556+P17301); experiment: Inhibition of human alpha2 beta1 expressed in CHO cells assessed as reduction in cell adhesion to collagen type 1 incubated for 5 mins by DiOC6 dye based fluorescence microscopy
[3] = biological target: T1, Integrin alpha-L/beta-2 (LFA-1); experiment: Inhibition of human integrin alphaL beta2 assessed as reduction in integrin alphaL beta2/ICAM1 protein-protein interaction by ELISA; assay type: protein-complex assay
[4] = biological target: Integrin alpha-IIb/beta-3 (Homo sapiens, UniProt P05106+P08514); experiment: Inhibition of FITC-dodecapeptide binding to human integrin alpha2b beta3 receptor stably expressed in CHO Lec.3.2.8.1 cells by fluorescence anisotropy; assay type: cell-based
Integrin alpha-V/beta-1 = Integrin alpha-V/beta-1 (Homo sapiens, UniProt P05556+P06756); experiment: Displacement of [3H] C8 from human integrin alphavbeta1 incubated for 6 hrs by competition binding assay; assay type: protein-complex assay
Chain of Integrin alpha-V/beta-1 (P05556 21-798 limits assumed): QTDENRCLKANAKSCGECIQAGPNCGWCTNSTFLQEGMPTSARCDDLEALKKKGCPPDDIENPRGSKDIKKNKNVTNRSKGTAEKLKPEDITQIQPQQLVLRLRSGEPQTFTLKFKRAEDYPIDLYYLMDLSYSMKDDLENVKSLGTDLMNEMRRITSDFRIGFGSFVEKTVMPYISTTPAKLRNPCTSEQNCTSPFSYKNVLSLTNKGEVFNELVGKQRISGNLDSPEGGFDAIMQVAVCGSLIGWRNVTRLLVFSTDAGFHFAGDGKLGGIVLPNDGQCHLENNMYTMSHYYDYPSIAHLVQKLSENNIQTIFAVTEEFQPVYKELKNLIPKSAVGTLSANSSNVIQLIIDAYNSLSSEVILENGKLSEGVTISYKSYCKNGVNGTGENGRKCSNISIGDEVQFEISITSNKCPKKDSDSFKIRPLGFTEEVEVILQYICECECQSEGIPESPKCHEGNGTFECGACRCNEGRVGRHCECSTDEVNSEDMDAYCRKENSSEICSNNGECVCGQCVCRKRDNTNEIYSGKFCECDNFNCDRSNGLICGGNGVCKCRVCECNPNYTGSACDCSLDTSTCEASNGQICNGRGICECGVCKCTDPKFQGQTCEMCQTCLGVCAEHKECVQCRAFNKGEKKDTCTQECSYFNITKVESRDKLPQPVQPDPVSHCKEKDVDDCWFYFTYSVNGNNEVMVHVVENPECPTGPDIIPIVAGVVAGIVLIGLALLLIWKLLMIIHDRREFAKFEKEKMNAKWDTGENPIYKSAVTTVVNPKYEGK
Chain of Integrin alpha-V/beta-1 (P06756 31-889 limits assumed): as the sequence (P06756 31-889 limits assumed) above
Chain of Integrin alpha-V/beta-1 (P06756 891-1048 limits assumed): as the sequence (P06756 891-1048 limits assumed) above

Integrin alpha-V/beta-3 [5] = biological target: T2, Integrin alpha-V/beta-3; experiment: Inhibition of human integrin alphavbeta3 (unknown origin); assay type: protein-complex assay

SMILES: CCOc1ccccc1Sc1ccc(-c2ccnc(N3CCN(C(C)=O)CC3)c2)cc1[N+](=O)[O-]
Kd [1]: 18.3 nM

SMILES: COc1ccc([C@H](CC(=O)O)N2CCN(CCCc3ccc4c(n3)NCCC4)C2=O)cn1
IC50 (Integrin alpha-V/beta-3 [2]): 3 nM

SMILES: CC[C@H](C)C(=O)OC1C[C@@H](C)C=C2C=C[C@H](C)[C@H](CC[C@@H]3C[C@H](CC(=O)NC)N(Cc4ccc(O)c(OC)c4)C(=O)O3)[C@H]21 (some centres not stated)
IC50 [3]: 50 nM

SMILES: CC[C@H](C)C(=O)O[C@H]1C[C@@H](C)C=C2C=C[C@H](C)[C@H](CCC3C[C@@H](O)CC(=O)N3Cc3ccc4c(CO)c(OC)ccc4c3)[C@H]21 (some centres not stated)
IC50 [3]: 200 nM

SMILES: N=C(N)NCCCC[C@@H]1NC(=O)CCSSC[C@@H](C(N)=O)NC(=O)[C@@H]2CCCN2C(=O)[C@H](Cc2c[nH]c3ccccc23)NC(=O)[C@H](CC(=O)O)NC(=O)CNC1=O [EPTIFIBATIDE] ([Mpa][hArg]GDWPC-NH2; disulfide 1-7)
Kd (Integrin alpha-V/beta-3 [5]): 120 nM

Now from value to compound:

Kd (Integrin alpha-4/beta-1): 0.794 nM
SMILES: N=C(N)NCCCCC(=O)Nc1ccc(C[C@H](NC(=O)[C@@H]2CCCN2S(=O)(=O)c2ccccc2)C(=O)O)cc1

EC50 (Integrin alpha2/beta1): 130 nM
SMILES: CN(c1ccc(NC(=O)Nc2ccccc2)cc1)S(=O)(=O)c1cnn(-c2ccc(F)cc2)c1

IC50 [4]: 0.6 nM
SMILES: N=C(N)c1ccc(C(=O)NCCC(=O)N[C@@H](CC(=O)O)C(=O)NC(Cc2ccccc2)C(=O)O)cc1 (some centres not stated)

IC50 (Integrin alpha-V/beta-3 [2]): 25 nM
SMILES: O=C(CCCCc1ccc2c(n1)NCCC2)NCC[C@H](NC(=O)c1nc2ccccc2s1)C(=O)O

EC50 (Integrin alpha2/beta1): 160 nM
SMILES: CN(c1ccc(NC(=O)Nc2ccccc2)cc1)S(=O)(=O)c1ccc(-c2ccnn2C)s1

Ki (Integrin alpha-V/beta-1): 0.166 nM
SMILES: CCNC(=O)Nc1cnnc(-c2ccc(C[C@H](NC(=O)c3c(Cl)cccc3Cl)C(=O)O)cc2)c1

IC50 (Integrin alpha-V/beta-3 [5]): 8 to 19 nM
SMILES: O=C(NC[C@H](NS(=O)(=O)c1cccnc1)C(=O)O)c1cc2cc(CCC3CCNCC3)sc2s1
